From ChEMBL document CHEMBL1123583 (J Med Chem, 1987)

Tests used:
[1] = Acid dissociation constant was determined for the compound; format: ADME
[2] = target: Histamine H2 receptor (Cavia porcellus) (UniProt P47747)
[3] = target: Histamine H2 receptor (Cavia porcellus) (UniProt P47747); remark: listed apart in the source
[4] = target: Histamine H2 receptor (Cavia porcellus) (UniProt P47747); remark: listed apart in the source
Histamine H2 receptor [5] = target: T1, Histamine H2 receptor (Cavia porcellus, UniProt P47747); experiment: Antagonistic activity of guinea pig Histamine H2 receptor expressed as pA2 at pH 7.4; format: functional; conditions: read-out: pA2 (converted)
T1 sequence (P47747 whole entry): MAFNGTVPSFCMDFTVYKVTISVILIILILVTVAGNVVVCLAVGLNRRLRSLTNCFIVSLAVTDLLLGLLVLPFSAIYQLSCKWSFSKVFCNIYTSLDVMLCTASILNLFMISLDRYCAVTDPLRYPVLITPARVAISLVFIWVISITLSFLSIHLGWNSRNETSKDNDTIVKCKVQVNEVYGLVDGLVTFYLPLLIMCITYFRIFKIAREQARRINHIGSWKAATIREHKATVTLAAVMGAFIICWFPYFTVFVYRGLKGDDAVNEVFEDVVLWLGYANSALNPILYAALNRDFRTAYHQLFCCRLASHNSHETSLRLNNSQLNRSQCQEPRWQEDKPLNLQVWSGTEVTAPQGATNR

Histamine H2 receptor [6] = target: T1, Histamine H2 receptor; experiment: Antagonistic activity of guinea pig Histamine H2 receptor expressed as pA2 at pH 7.8; format: functional; conditions: read-out: pA2 (converted)
Histamine H2 receptor [7] = target: T1, Histamine H2 receptor; experiment: Antagonistic activity of guinea pig Histamine H2 receptor expressed as pA2 at pH 7.0; format: functional; conditions: read-out: pA2 (converted)

Sequence of Histamine H2 receptor (Cavia porcellus) (P47747 whole entry): as above

pKa ([1]; read-out: pKa1) | pKa ([1]; read-out: pKa2) | pD2 [2] | pD2 [3] | pD2 [4] | Kb (Histamine H2 receptor [5]) [nM] | Kb (Histamine H2 receptor [6]) [nM] | Kb (Histamine H2 receptor [7]) [nM] | Structure (SMILES)
9.57 | 6.1 | 5.89 | 5.81 | 5.88 |  |  |  | NCCc1c[nH]cn1 [HISTAMINE]
8.82 | 5.64 |  |  |  | 17.4 | 11.7 | 45.7 | CC(C)/N=C/Nc1ccc(-c2c[nH]cn2)cc1 [MIFENTIDINE]

Structure (SMILES) | pKa ([1]; read-out: pKa1) | pKa ([1]; read-out: pKa2) | pD2 [2] | pD2 [3] | pD2 [4] | Kb (Histamine H2 receptor [5]) [nM] | Kb (Histamine H2 receptor [6]) [nM] | Kb (Histamine H2 receptor [7]) [nM]
CN/C(=N/CCSCc1nc[nH]c1C)NC#N [CIMETIDINE] | 6.98 |  |  |  |  |  |  | 
